Experimental data reported in the supplement of paper PMC11061612.

Experiments:
Assay in all cases: combination Emax (second highest fraction inhibited in the dose matrix, 72 h); higher = more inhibition; extreme values may be limits of the assay
[1] = tested on: MDA-MB-175-VII (Breast Carcinoma)
Method in brief: (§1)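 Cell lines in DMEM/F12 or RPMI with 10% FBS were plated in 1536-well plates, held 24 hours at 37°C, 5% CO2, then given two-drug dose matrices for 72 hours (DMSO typically 0.2%). Viability was read by CellTiter-Glo 2.0 luminescence and scaled as inhibition from 0 (vehicle wells) to 1 (blank wells). Combination Emax is the second-highest inhibition in the matrix; Bliss excess is observed combination effect minus expected EA + EB − EA·EB, EA and EB being single-agent effects.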

DK-MG (Glioblastoma) = tested on: DK-MG (Glioblastoma)
Method in brief: as §1

[2] = tested on: OVKATE (Ovarian Carcinoma)
Method in brief: as §1

[3] = tested on: NCI-H1944 (Lung Adenocarcinoma)
Method in brief: as §1

[4] = tested on: NCI-H2023 (Non-Small Cell Lung Carcinoma)
Method in brief: as §1

[5] = tested on: NCI-H1648 (Lung Adenocarcinoma)
Method in brief: as §1

[6] = tested on: TOV-21G (Ovarian Carcinoma)
Method in brief: as §1

[7] = tested on: SUP-HD1 (Hodgkin's Lymphoma)
Method in brief: as §1

[8] = tested on: OCI-M1 (Acute Myeloid Leukemia)
Method in brief: as §1

NCI-H2452 (Mesothelioma) = tested on: NCI-H2452 (Mesothelioma)
Method in brief: as §1

[9] = tested on: JURL-MK1 (Chronic Myelogenous Leukemia)
Method in brief: as §1

[10] = tested on: NCI-H1975 (Lung Adenocarcinoma)
Method in brief: as §1

[11] = tested on: SNU-1 (Gastric Carcinoma)
Method in brief: as §1

[12] = tested on: MRK-nu-1 (Breast Carcinoma)
Method in brief: as §1

[13] = tested on: COR-L105 (Lung Adenocarcinoma)
Method in brief: as §1

[14] = tested on: HT-3 (Cervical Carcinoma)
Method in brief: as §1

[15] = tested on: NCI-H2170 (Squamous Cell Lung Carcinoma)
Method in brief: as §1

MG-63 (Osteosarcoma) = tested on: MG-63 (Osteosarcoma)
Method in brief: as §1

[16] = tested on: NTERA-2-cl-D1 (Other Solid Carcinomas)
Method in brief: as §1

[17] = tested on: BT-474 (Breast Carcinoma)
Method in brief: as §1

SMILES | combination Emax [1] | combination Emax (DK-MG (Glioblastoma)) | combination Emax [2] | combination Emax [3] | combination Emax [4] | combination Emax [5] | combination Emax [6] | combination Emax [7] | combination Emax [8] | combination Emax (NCI-H2452 (Mesothelioma)) | combination Emax [9] | combination Emax [10] | combination Emax [11] | combination Emax [12] | combination Emax [13] | combination Emax [14] | combination Emax [15] | combination Emax (MG-63 (Osteosarcoma)) | combination Emax [16] | combination Emax [17]
CC1(C)CCC(CN2CCN(c3ccc(C(=O)NS(=O)(=O)c4ccc(NCC5CCOCC5)c([N+](=O)[O-])c4)c(Oc4cnc5[nH]ccc5c4)c3)CC2)=C(c2ccc(Cl)cc2)C1 [Venetoclax] + CN(C)CCCOc1ccc(-c2ccc3ncc4c(c3c2)n(C2CCOCC2)c(=O)n4C)cn1 [AZD0156] (first compound max 1 µM, 7x7, partner max 1 µM) | 0.174 | 0.292 | 0.208 | 0.228 | 0.338 | 0.267 | 0.18 | 0.761 | 0.19 | 0.277 | 0.262 | 0.216 | 0.225 | 0.132 | 0.186 | 0.145 | 0.243 | 0.217 | 0.755 | 0.175
CC1(C)CCC(CN2CCN(c3ccc(C(=O)NS(=O)(=O)c4ccc(NCC5CCOCC5)c([N+](=O)[O-])c4)c(Oc4cnc5[nH]ccc5c4)c3)CC2)=C(c2ccc(Cl)cc2)C1 [Venetoclax] + COc1cc(Nc2ncc3c(n2)-c2ccc(Cl)cc2C(c2c(F)cccc2OC)=NC3)ccc1C(=O)O [Alisertib] (first compound max 1 µM, 7x7, partner max 10 µM) | 0.238 | 0.443 | 0.311 | 0.544 | 0.477 | 0.58 | 0.682 | 0.906 | 0.815 | 0.573 | 0.964 | 0.469 | 0.327 | 0.628 | 0.377 | 0.0652 | 0.666 | 0.669 | 0.954 | 0.242
CC1(C)CCC(CN2CCN(c3ccc(C(=O)NS(=O)(=O)c4ccc(NCC5CCOCC5)c([N+](=O)[O-])c4)c(Oc4cnc5[nH]ccc5c4)c3)CC2)=C(c2ccc(Cl)cc2)C1 [Venetoclax] + C[C@@H]1COCCN1C2=NC(=NC(=C2)C3(CC3)[S@](=N)(=O)C)C4=C5C=CNC5=NC=C4 [AZD6738] (first compound max 1 µM, 7x7, partner max 10 µM) | 0.251 | 0.336 | 0.407 | 0.892 | 0.729 | 0.668 | 0.785 | 0.911 | 1 | 0.573 | 1 | 0.433 | 0.798 | 0.665 | 0.421 | 0.452 | 0.691 | 0.494 | 0.881 | 0.206
CC1(C)CCC(CN2CCN(c3ccc(C(=O)NS(=O)(=O)c4ccc(NCC5CCOCC5)c([N+](=O)[O-])c4)c(Oc4cnc5[nH]ccc5c4)c3)CC2)=C(c2ccc(Cl)cc2)C1 [Venetoclax] + C[C@@H](Nc1cc(F)cc(F)c1)c1cc(C(=O)N(C)C)cc2c(=O)cc(N3CCOCC3)oc12 [AZD8186] (first compound max 1 µM, 7x7, partner max 3 µM) | 0.315 | 0.372 | 0.262 | 0.184 | 0.416 | 0.454 | 0.149 | 0.839 | 0.0849 | 0.268 | 0.095 | 0.22 | 0.154 | 0.175 | 0.24 | 0.0586 | 0.166 | 0.143 | 0.805 | 0.163
CC1(C)CCC(CN2CCN(c3ccc(C(=O)NS(=O)(=O)c4ccc(NCC5CCOCC5)c([N+](=O)[O-])c4)c(Oc4cnc5[nH]ccc5c4)c3)CC2)=C(c2ccc(Cl)cc2)C1 [Venetoclax] + Cc1cc2ncnn2cc1Nc1ncc2c(n1)n(C1CCOCC1)c(=O)n2C [AZD7648] (first compound max 1 µM, 7x7, partner max 10 µM) | 0.243 | 0.265 | 0.28 | 0.353 | 0.392 | 0.43 | 0.195 | 0.795 | 0.234 | 0.259 | 0.356 | 0.392 | 0.288 | 0.523 | 0.274 | 0.135 | 0.282 | 0.201 | 0.743 | 0.197
CC1(C)CCC(CN2CCN(c3ccc(C(=O)NS(=O)(=O)c4ccc(NCC5CCOCC5)c([N+](=O)[O-])c4)c(Oc4cnc5[nH]ccc5c4)c3)CC2)=C(c2ccc(Cl)cc2)C1 [Venetoclax] + Cn1cnc2c(F)c(Nc3ccc(Br)cc3Cl)c(C(=O)NOCCO)cc21 [Selumetinib] (first compound max 1 µM, 7x7, partner max 3 µM) | 0.255 | 0.362 | 0.217 | 0.239 | 0.177 | 0.496 | 0.216 | 0.809 | 0.483 | 0.181 | 0.876 | 0.28 | 0.221 | 0.235 | 0.362 | 0.118 | 0.107 | 0.148 | 0.742 | 0.0915
